Data published in patent publication US20110269811A1, “INHIBITORS OF SEMICARBAZIDE-SENSITIVE AMINE OXIDASE (SSAO) AND VAP-1 MEDIATED ADHESION USEFUL FOR TREATMENT AND PREVENTION OF DISEASES” (priority 2006, published 2011).

How the values were obtained:
5-HT transporter (h) = target: T1, 5-HT transporter (h) (Homo sapiens, UniProt P31645); assay: Receptor binding screen, [^3H]imipramine; details: 10 uM Concentration of Compound I-1-Z; read-out: Mean Value, percent inhibition of control specific binding: 5-HT transporter (h)
T1 construct: expressed in transfected cells; host or cells: CHO cells

[1] = test system: collagen-induced arthritis; assay: Collagen-induced arthritis by direct injection of Type II collagen; format: in vivo, B10RIII mice; details: FIG. 15
Experimental: Collagen-induced arthritis can also be induced by direct injection of collagen. Groups of 15 male B10RIII mice were injected intradermally with Type II collagen in Complete Freund Adjuvant (CFA) on days 0 and 15. Mice were dosed p.o. starting from day 0 to day 28 with phosphate buffered saline (PBS), 5 mg/kg compound I-1-Z, 30 mg/kg compound I-1-Z or 0.2 mg/kg dexamethasone. […] Clinical scores were determined daily for each paw based on a scale between 0-5 based on joint erythema and swelling. Statistical analysis was by Student's t-test versus the PBS-treated disease control group.

P2X = assay: Receptor binding screen, [^3H]α,β-MeATP, rat urinary bladder; details: 10 uM Concentration of Compound I-1-Z
5-HT1B = target: T2, 5-HT1B (Rattus norvegicus, UniProt P28564); assay: Receptor binding screen, [^125I]CYP; details: probe [125I]CYP (radioligand), 10 uM Concentration of Compound I-1-Z, read-out: Mean Value, percent inhibition of control specific binding: 5-HT1B
T2 construct: rat cerebral cortex; from tissue; host or cells: rat cerebral cortex

TNF-α (h) = assay: Receptor binding screen, [^125I]TNF-α, U-937 cells; parameters: species or system human; details: 10 uM Concentration of Compound I-1-Z
TXA2/PGH2 (h) (TP) = target: T3, TXA2/PGH2 (h) (TP) (Homo sapiens, UniProt P21731); assay: Receptor binding screen, [^3H]SQ 29548, human platelets; details: 10 uM Concentration of Compound I-1-Z; read-out: Mean Value, percent inhibition of control specific binding: TXA2/PGH2 (h) (TP)
T3 construct: human platelets; endogenous in cells; host or cells: human platelets

MC4 (h) = target: T4, MC4 (h) (Homo sapiens, UniProt P32245); assay: Receptor binding screen, [^125I]NDP-α-MSH; details: 10 uM Concentration of Compound I-1-Z; read-out: Mean Value, percent inhibition of control specific binding: MC4 (h)
T4 construct: expressed in transfected cells; host or cells: CHO cells

BZD (central) = assay: Receptor binding screen, [^3H]flunitrazepam; parameters: species or system rat; details: 10 uM Concentration of Compound I-1-Z
[2] = test system: Ca^2+ channel (L, verapamil site) (phenylalkylamines); assay: Receptor binding screen, [^3H](−)D 888; parameters: species or system rat; details: 10 uM Concentration of Compound I-1-Z
M2 (h) = target: T5, M2 (h) (Homo sapiens, UniProt P08172); assay: Receptor binding screen, [^3H]AF-DX 384; details: 10 uM Concentration of Compound I-1-Z; read-out: Mean Value, percent inhibition of control specific binding: M2 (h)
T5 construct: expressed in transfected cells; host or cells: CHO cells

NK2 (h) = target: T6, NK2 (h) (Homo sapiens, UniProt P21452); assay: Receptor binding screen, [^125I]NKA; details: 10 uM Concentration of Compound I-1-Z; read-out: Mean Value, percent inhibition of control specific binding: NK2 (h)
T6 construct: expressed in transfected cells; host or cells: CHO cells

M4 (h) = target: T7, M4 (h) (Homo sapiens, UniProt P08173); assay: Receptor binding screen, [^3H]4-DAMP; details: 10 uM Concentration of Compound I-1-Z; read-out: Mean Value, percent inhibition of control specific binding: M4 (h)
T7 construct: expressed in transfected cells; host or cells: CHO cells

NT1 (h) (NTS1) = target: T8, NT1 (h) (NTS1) (Homo sapiens, UniProt P30989); assay: Receptor binding screen, [^125I]Tyr^3-neurotensin; details: 10 uM Concentration of Compound I-1-Z; read-out: Mean Value, percent inhibition of control specific binding: NT1 (h) (NTS1)
T8 construct: expressed in transfected cells; host or cells: CHO cells

CXCR2 (h) (IL-8B) = target: T9, CXCR2 (h) (IL-8B) (Homo sapiens, UniProt P25025); assay: Receptor binding screen, [^125I]IL-8; details: 10 uM Concentration of Compound I-1-Z; read-out: Mean Value, percent inhibition of control specific binding: CXCR2 (h) (IL-8B)
T9 construct: expressed in transfected cells; host or cells: HEK-293 cells

[3] = test system: experimental autoimmune encephalomyelitis; assay: Experimental autoimmune encephalomyelitis (EAE), MOG peptide 35-55; format: in vivo, C57BL/6 mice; details: 40 mg/kg/dose once daily i.p. for 30 consecutive days
Experimental: SSAO/VAP-1 is expressed on the endothelium of inflamed tissues/organs including brain and spinal cord. Its ability to support lymphocyte transendothelial migration may be an important systemic function of SSAO/VAP-1 in inflammatory diseases such as multiple sclerosis and Alzheimer's disease. An analysis of the use of SSAO inhibitors to treat inflammatory disease of the central nervous system (CNS) was performed through the use of an experimental autoimmune encephalomyelitis model (EAE) in C57BL/6 mice. EAE in rodents is a well-characterized and reproducible animal model of multiple sclerosis in human (Benson J. M. et al. (2000) J. Clin. Invest. 106:1031). Multiple sclerosis is a chronic immune-mediated disease of the CNS characterized by patchy perivenular inflammatory infiltrates in areas of demyelination and axonal loss. As an animal model, EAE can be induced in mice by immunization with encephalitogenic myelin antigens in the presence of adjuvant. […]
To examine the role of SSAO/VAP-1 as a major regulator of the lymphocyte recruitment to the CNS, compound II-1-E, an SSAO inhibitor, was evaluated in an EAE model.
Twenty female C57BL/6 mice were immunized subcutaneously (s.c). with myelin oligodendrocyte glycoprotein 35-55 (MOG peptide 35-55) in Complete Freund Adjuvant (CFA) on day 0, followed by i.p. injections of 500 ng pertussis toxin (one pertussis toxin injection on day 0, a second pertussis toxin injection on day 2). Groups of 10 mice received either compound II-1-E 40 mg/kg/dose, once daily i.p. for 30 consecutive days), or vehicle control (once/day for 30 consecutive days) all starting from one day after the immunization and all administered i.p. The animals were monitored for body weight, signs of paralysis and death according to a 0-5 scale of scoring system as follows: 1=limp tail or waddling gait with tail tonicity; 2=waddling gait with limp tail (ataxia); 2.5=ataxia with partial limb paralysis; 3=full paralysis of one limb; 3.5=full paralysis of one limb with partial paralysis of second limb; 4=full paralysis of two limbs; 4.5=moribund; 5=death. […]

T8 sequence (P30989 whole entry): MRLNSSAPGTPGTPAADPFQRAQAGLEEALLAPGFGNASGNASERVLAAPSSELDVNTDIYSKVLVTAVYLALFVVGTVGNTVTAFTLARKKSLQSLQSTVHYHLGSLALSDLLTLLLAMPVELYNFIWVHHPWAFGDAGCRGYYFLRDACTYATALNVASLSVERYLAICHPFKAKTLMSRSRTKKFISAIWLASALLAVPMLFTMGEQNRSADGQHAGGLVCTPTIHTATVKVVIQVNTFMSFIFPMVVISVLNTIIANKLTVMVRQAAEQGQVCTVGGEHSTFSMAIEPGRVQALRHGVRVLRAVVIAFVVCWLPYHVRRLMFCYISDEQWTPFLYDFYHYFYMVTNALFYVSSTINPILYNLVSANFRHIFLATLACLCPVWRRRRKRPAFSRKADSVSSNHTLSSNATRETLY
T5 sequence (P08172 whole entry): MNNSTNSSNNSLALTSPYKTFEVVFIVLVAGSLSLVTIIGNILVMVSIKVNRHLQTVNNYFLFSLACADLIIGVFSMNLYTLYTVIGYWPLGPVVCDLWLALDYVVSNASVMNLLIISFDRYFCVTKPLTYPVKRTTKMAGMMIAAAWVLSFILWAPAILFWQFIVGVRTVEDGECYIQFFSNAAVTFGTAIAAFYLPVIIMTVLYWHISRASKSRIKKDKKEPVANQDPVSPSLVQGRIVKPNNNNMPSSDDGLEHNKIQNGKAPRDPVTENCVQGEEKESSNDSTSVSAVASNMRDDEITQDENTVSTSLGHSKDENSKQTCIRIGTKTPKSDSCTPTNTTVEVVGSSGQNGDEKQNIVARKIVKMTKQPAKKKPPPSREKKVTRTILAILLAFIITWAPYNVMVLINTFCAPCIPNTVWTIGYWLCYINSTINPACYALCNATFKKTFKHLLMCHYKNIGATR
T9 sequence (P25025 whole entry): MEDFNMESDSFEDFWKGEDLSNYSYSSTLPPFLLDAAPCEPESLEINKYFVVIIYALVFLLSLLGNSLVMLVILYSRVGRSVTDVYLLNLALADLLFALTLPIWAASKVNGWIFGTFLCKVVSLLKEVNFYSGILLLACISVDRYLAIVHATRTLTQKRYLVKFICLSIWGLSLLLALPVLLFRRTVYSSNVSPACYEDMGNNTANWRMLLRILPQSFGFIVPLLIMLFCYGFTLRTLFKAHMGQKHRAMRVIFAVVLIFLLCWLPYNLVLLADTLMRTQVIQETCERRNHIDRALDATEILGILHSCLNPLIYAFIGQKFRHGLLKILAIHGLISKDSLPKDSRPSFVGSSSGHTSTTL
T7 sequence (P08173 whole entry): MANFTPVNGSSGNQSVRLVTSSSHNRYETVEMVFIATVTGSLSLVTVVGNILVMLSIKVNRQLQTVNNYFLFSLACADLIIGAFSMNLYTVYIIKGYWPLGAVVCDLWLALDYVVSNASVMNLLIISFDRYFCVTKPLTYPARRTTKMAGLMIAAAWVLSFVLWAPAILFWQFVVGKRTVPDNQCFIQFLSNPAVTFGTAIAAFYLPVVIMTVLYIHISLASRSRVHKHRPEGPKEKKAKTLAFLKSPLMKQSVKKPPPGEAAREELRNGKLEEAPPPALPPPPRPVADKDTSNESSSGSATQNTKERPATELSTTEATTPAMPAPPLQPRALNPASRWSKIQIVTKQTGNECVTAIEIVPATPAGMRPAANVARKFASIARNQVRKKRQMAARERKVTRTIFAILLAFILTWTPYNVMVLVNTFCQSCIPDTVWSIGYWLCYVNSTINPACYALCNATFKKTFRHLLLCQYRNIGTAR
T6 sequence (P21452 whole entry): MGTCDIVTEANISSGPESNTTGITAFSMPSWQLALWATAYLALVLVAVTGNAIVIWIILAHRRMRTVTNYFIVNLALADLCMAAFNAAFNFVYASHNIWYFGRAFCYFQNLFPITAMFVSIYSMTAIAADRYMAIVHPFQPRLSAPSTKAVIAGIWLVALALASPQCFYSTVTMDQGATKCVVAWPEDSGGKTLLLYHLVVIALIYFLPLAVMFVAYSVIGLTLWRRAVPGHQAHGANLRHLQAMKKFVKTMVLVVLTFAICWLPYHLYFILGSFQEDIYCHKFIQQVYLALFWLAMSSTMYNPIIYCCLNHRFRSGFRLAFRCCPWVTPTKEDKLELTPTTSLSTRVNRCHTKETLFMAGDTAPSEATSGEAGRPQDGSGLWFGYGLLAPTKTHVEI
T4 sequence (P32245 whole entry): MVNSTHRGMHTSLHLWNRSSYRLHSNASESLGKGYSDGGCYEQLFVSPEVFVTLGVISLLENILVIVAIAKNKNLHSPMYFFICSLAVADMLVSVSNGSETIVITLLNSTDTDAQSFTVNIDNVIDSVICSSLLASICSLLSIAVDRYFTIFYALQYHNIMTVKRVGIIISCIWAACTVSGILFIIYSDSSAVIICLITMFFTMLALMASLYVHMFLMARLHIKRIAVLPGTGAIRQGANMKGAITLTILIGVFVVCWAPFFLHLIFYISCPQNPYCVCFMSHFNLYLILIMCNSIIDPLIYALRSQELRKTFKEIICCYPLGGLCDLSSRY
T2 sequence (P28564 whole entry): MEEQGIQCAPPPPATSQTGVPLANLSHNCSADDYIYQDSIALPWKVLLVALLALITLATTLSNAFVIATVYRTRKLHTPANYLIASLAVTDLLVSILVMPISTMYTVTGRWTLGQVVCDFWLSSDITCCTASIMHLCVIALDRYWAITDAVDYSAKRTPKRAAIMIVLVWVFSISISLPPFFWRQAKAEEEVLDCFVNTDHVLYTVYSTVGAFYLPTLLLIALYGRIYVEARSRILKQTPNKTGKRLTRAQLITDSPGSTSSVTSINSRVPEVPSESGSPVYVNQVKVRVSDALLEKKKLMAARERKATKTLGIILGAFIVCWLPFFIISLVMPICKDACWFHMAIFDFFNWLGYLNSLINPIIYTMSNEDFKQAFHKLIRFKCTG
T3 sequence (P21731 whole entry): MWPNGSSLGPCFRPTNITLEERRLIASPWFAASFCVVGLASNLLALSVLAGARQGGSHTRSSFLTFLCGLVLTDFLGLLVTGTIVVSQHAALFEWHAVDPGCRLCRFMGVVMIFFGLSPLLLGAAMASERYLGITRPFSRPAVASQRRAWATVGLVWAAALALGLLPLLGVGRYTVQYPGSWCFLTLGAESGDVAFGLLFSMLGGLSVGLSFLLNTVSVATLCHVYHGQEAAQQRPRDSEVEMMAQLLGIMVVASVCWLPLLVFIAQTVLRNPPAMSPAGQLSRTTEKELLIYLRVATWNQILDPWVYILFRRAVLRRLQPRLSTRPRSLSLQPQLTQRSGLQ
T1 sequence (P31645 whole entry): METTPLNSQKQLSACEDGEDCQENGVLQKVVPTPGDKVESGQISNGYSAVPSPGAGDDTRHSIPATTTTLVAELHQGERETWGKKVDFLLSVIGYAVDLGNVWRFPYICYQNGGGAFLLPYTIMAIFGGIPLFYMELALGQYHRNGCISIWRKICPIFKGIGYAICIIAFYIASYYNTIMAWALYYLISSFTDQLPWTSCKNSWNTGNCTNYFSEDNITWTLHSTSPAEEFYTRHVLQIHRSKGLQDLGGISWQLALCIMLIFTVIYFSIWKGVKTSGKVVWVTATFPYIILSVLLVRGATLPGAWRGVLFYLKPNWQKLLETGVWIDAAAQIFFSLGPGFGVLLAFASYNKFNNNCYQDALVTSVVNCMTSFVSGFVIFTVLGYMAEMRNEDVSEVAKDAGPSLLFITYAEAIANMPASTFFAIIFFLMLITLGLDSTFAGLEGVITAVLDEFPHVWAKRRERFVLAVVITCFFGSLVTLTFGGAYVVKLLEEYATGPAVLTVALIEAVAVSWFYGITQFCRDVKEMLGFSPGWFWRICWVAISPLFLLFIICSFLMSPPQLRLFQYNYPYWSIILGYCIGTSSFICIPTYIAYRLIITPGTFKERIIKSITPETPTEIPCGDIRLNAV

| SMILES | inhibition at 10 µM (5-HT transporter (h)) [%] | incidence of arthritis and clinical scores as compared to PBS ([1]; 5 mg/kg p.o. day 0 to day 28) | clinical efficacy ([1]; 30 mg/kg p.o. day 0 to day 28) | Mean Value, percent inhibition of control specific binding: P2X (P2X) [%] | inhibition at 10 µM (5-HT1B) [%] | Mean Value, percent inhibition of control specific binding: TNF-α (h) (TNF-α (h)) [%] | inhibition at 10 µM (TXA2/PGH2 (h) (TP)) [%] | inhibition at 10 µM (MC4 (h)) [%] | Mean Value, percent inhibition of control specific binding: BZD (central) (BZD (central)) [%] | Mean Value, percent inhibition of control specific binding: Ca^2+ channel (L, verapamil site) (phenylalkylamines) [2] [%] | inhibition at 10 µM (M2 (h)) [%] | inhibition at 10 µM (NK2 (h)) [%] | inhibition at 10 µM (M4 (h)) [%] | inhibition at 10 µM (NT1 (h) (NTS1)) [%] | inhibition at 10 µM (CXCR2 (h) (IL-8B)) [%] | day until which similar clinical scores between the two groups was not reached [3] [days] | mean clinical score of the treated group from day 14 onward [3] | day at which disease reached 100% incidence ([3]; control group day 13) [days] |
| --- | --- | --- | --- | --- | --- | --- | --- | --- | --- | --- | --- | --- | --- | --- | --- | --- | --- | --- |
| COc1ccc(C/C(=C/F)CN)cc1.Cl [Compound I-1-Z, (Z)-3-Fluoro-2-(4-methoxybenzyl)-allylamine hydrochloride] | 47 | reduced both the incidence of arthritis and the clinical scores | no clinical efficacy was observed | −2 | 16 | −6 | 4 | 8 | 14 | 14 | 3 | 3 | 22 | -1 | -8 |  |  |  |
| NC/C(F)=C\Cc1cc(F)cc(C(F)(F)F)c1 [II-1-E, (E)-2-Fluoro-4-(3-fluoro-5-trifluoromethylphenyl)-but-2-enylamine] |  |  |  |  |  |  |  |  |  |  |  |  |  |  |  | 38 | well below that in the control group | 24 |
